# Experimental data taken from PubChem BioAssay AID2060910 (Molecular Pharmacology Branch, DTP, NCI, 2025).
# pIC50: −log10 of the molar value.
# Test system: 242566-281-R-J2-PDC complex spheroid viability
# Experiment: Anticancer human tumor 242566-281-R-J2-PDC patient-derived pancreatic carcinoma cell line growth inhibition [RAS]
# Conditions: for viability, T/C: stronger effect = lower value
# How it was run: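 Multi-cell-type spheroids: tumor cells plus HUVEC endothelial cells and mesenchymal stem cells. RAS-pathway inhibitors were combined with targeted agents, each dosed in half-log steps down from clinical Cmax, or from 10 microM when Cmax was unknown.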
# [1] = curve of first compound, second compound 0.000949 µM
# [2] = curve of first compound, second compound 0.003 µM
# [3] = curve of first compound, second compound 0.00949 µM
# [4] = curve of first compound, second compound 0.03 µM
# [5] = curve of first compound, second compound 0.0949 µM
# [6] = curve of first compound, second compound 0.3 µM
# [7] = second compound 0.000949 µM, first compound 0.0316 µM
# [8] = second compound 0.000949 µM, first compound 0.1 µM
# [9] = second compound 0.000949 µM, first compound 0.316 µM
# [10] = second compound 0.000949 µM, first compound 1 µM
# [11] = second compound 0.000949 µM, first compound 3.16 µM
# [12] = second compound 0.000949 µM, first compound 10 µM
# [13] = second compound 0.003 µM, first compound 0.0316 µM
# [14] = second compound 0.003 µM, first compound 0.1 µM
# [15] = second compound 0.003 µM, first compound 0.316 µM
# [16] = second compound 0.003 µM, first compound 1 µM
# [17] = second compound 0.003 µM, first compound 3.16 µM
# [18] = second compound 0.003 µM, first compound 10 µM
# [19] = second compound 0.00949 µM, first compound 0.0316 µM
# [20] = second compound 0.00949 µM, first compound 0.1 µM
# [21] = second compound 0.00949 µM, first compound 0.316 µM
# [22] = second compound 0.00949 µM, first compound 1 µM
# [23] = second compound 0.00949 µM, first compound 3.16 µM
# [24] = second compound 0.00949 µM, first compound 10 µM
# [25] = second compound 0.03 µM, first compound 0.0316 µM
# [26] = second compound 0.03 µM, first compound 0.1 µM
# [27] = second compound 0.03 µM, first compound 0.316 µM
# [28] = second compound 0.03 µM, first compound 1 µM
# [29] = second compound 0.03 µM, first compound 3.16 µM
# [30] = second compound 0.03 µM, first compound 10 µM
# [31] = second compound 0.0949 µM, first compound 0.0316 µM
# [32] = second compound 0.0949 µM, first compound 0.1 µM
# [33] = second compound 0.0949 µM, first compound 0.316 µM
# [34] = second compound 0.0949 µM, first compound 1 µM
# [35] = second compound 0.0949 µM, first compound 3.16 µM
# [36] = second compound 0.0949 µM, first compound 10 µM
# [37] = second compound 0.3 µM, first compound 0.0316 µM
# [38] = second compound 0.3 µM, first compound 0.1 µM
# [39] = second compound 0.3 µM, first compound 0.316 µM
# [40] = second compound 0.3 µM, first compound 1 µM
# [41] = second compound 0.3 µM, first compound 3.16 µM
# [42] = second compound 0.3 µM, first compound 10 µM
# 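Note: spheroids exposed to compound for 7 days before readout.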
# 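Throughout, for viability, T/C: 100% = DMSO vehicle control wells.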
compound,measurement,setting,value
Cc1nc(N2CCC3(CC2)COC(C)C3N)c(CO)nc1Sc1ccnc(N)c1Cl (stereo not drawn) + CCn1c(-c2cc(N3CCN(C)CC3)cnc2C(C)OC)c2c3cc(ccc31)-c1csc(n1)CC(NC(=O)C1CC1C)C(=O)N1CCCC(N1)C(=O)OCC(C)(C)C2,pIC50,[1],6.45
same,pIC50,[2],7.14
same,pIC50,[3],> 7.50
same,pIC50,[4],> 7.50
same,pIC50,[5],> 7.50
same,pIC50,[6],> 7.50
same,"viability, T/C",[7],92.2%
same,"viability, T/C",[8],69.8%
same,"viability, T/C",[9],43.5%
same,"viability, T/C",[10],45%
same,"viability, T/C",[11],32.9%
same,"viability, T/C",[12],19.8%
same,"viability, T/C",[13],61%
same,"viability, T/C",[14],46.9%
same,"viability, T/C",[15],31%
same,"viability, T/C",[16],28.2%
same,"viability, T/C",[17],26.1%
same,"viability, T/C",[18],16.1%
same,"viability, T/C",[19],41.3%
same,"viability, T/C",[20],26.4%
same,"viability, T/C",[21],27.9%
same,"viability, T/C",[22],21.9%
same,"viability, T/C",[23],19.4%
same,"viability, T/C",[24],17.1%
same,"viability, T/C",[25],25.8%
same,"viability, T/C",[26],24.3%
same,"viability, T/C",[27],19.3%
same,"viability, T/C",[28],17.9%
same,"viability, T/C",[29],15.1%
same,"viability, T/C",[30],14.9%
same,"viability, T/C",[31],21.5%
same,"viability, T/C",[32],19.1%
same,"viability, T/C",[33],18.5%
same,"viability, T/C",[34],16.9%
same,"viability, T/C",[35],14.3%
same,"viability, T/C",[36],15.4%
same,"viability, T/C",[37],21.5%
same,"viability, T/C",[38],18.1%
same,"viability, T/C",[39],16.6%
same,"viability, T/C",[40],14.8%
same,"viability, T/C",[41],16.4%
same,"viability, T/C",[42],12.9%
CCC(CC)c1cc(NC2CCC(N)C2)n2nccc2n1 (stereo not drawn) + CCn1c(-c2cc(N3CCN(C)CC3)cnc2C(C)OC)c2c3cc(ccc31)-c1csc(n1)CC(NC(=O)C1CC1C)C(=O)N1CCCC(N1)C(=O)OCC(C)(C)C2,pIC50,[1],5.58
same,pIC50,[2],5.69
same,pIC50,[3],> 7.50
same,pIC50,[4],> 7.50
same,pIC50,[5],> 7.50
same,pIC50,[6],> 7.50
same,"viability, T/C",[7],90.9%
same,"viability, T/C",[8],88.3%
same,"viability, T/C",[9],77.8%
same,"viability, T/C",[10],90.1%
same,"viability, T/C",[11],42.9%
same,"viability, T/C",[12],1.28%
same,"viability, T/C",[13],80.1%
same,"viability, T/C",[14],74.2%
same,"viability, T/C",[15],65.4%
same,"viability, T/C",[16],74.9%
same,"viability, T/C",[17],35.5%
same,"viability, T/C",[18],1.04%
same,"viability, T/C",[19],50.9%
same,"viability, T/C",[20],39.1%
same,"viability, T/C",[21],45.9%
same,"viability, T/C",[22],45.8%
same,"viability, T/C",[23],18.8%
same,"viability, T/C",[24],1.43%
same,"viability, T/C",[25],32.2%
same,"viability, T/C",[26],29.8%
same,"viability, T/C",[27],27.9%
same,"viability, T/C",[28],29.8%
same,"viability, T/C",[29],7.89%
same,"viability, T/C",[30],2.28%
same,"viability, T/C",[31],22.3%
same,"viability, T/C",[32],21%
same,"viability, T/C",[33],23.2%
same,"viability, T/C",[34],24.5%
same,"viability, T/C",[35],8.03%
same,"viability, T/C",[36],1.49%
same,"viability, T/C",[37],20.7%
same,"viability, T/C",[38],19.7%
same,"viability, T/C",[39],20.5%
same,"viability, T/C",[40],20.9%
same,"viability, T/C",[41],6.77%
same,"viability, T/C",[42],1.47%
CC(Nc1ccc2c(c1)OCCn1cc(N3C(=O)OCC3C(F)F)nc1-2)C(N)=O (stereo not drawn) + C=CC(=O)N1CCN(c2nc(OCC3CCCN3C)nc3c(F)c(-c4nc(N)cc(C)c4C(F)(F)F)c(Cl)cc23)C(C)C1,pIC50,"curve of first compound, second compound 0.00316 µM",6.12
same,pIC50,"curve of first compound, second compound 0.01 µM",6.03
same,pIC50,"curve of first compound, second compound 0.0316 µM",5.77
same,pIC50,"curve of first compound, second compound 0.1 µM",6.20
same,pIC50,"curve of first compound, second compound 0.316 µM",5.84
same,pIC50,"curve of first compound, second compound 1 µM",5.89
same,"viability, T/C","second compound 0.00316 µM, first compound 0.0316 µM",86.4%
same,"viability, T/C","second compound 0.00316 µM, first compound 0.1 µM",113%
same,"viability, T/C","second compound 0.00316 µM, first compound 0.316 µM",76.7%
same,"viability, T/C","second compound 0.00316 µM, first compound 1 µM",42.7%
same,"viability, T/C","second compound 0.00316 µM, first compound 3.16 µM",34.7%
same,"viability, T/C","second compound 0.00316 µM, first compound 10 µM",27.4%
same,"viability, T/C","second compound 0.01 µM, first compound 0.0316 µM",105%
same,"viability, T/C","second compound 0.01 µM, first compound 0.1 µM",115%
same,"viability, T/C","second compound 0.01 µM, first compound 0.316 µM",80.3%
same,"viability, T/C","second compound 0.01 µM, first compound 1 µM",48.3%
same,"viability, T/C","second compound 0.01 µM, first compound 3.16 µM",37.1%
same,"viability, T/C","second compound 0.01 µM, first compound 10 µM",24.4%
same,"viability, T/C","second compound 0.0316 µM, first compound 0.0316 µM",96.1%
same,"viability, T/C","second compound 0.0316 µM, first compound 0.1 µM",102%
same,"viability, T/C","second compound 0.0316 µM, first compound 0.316 µM",76.1%
same,"viability, T/C","second compound 0.0316 µM, first compound 1 µM",63.4%
same,"viability, T/C","second compound 0.0316 µM, first compound 3.16 µM",36.6%
same,"viability, T/C","second compound 0.0316 µM, first compound 10 µM",30.9%
same,"viability, T/C","second compound 0.1 µM, first compound 0.0316 µM",103%
same,"viability, T/C","second compound 0.1 µM, first compound 0.1 µM",105%
same,"viability, T/C","second compound 0.1 µM, first compound 0.316 µM",66%
same,"viability, T/C","second compound 0.1 µM, first compound 1 µM",41.7%
same,"viability, T/C","second compound 0.1 µM, first compound 3.16 µM",37.2%
same,"viability, T/C","second compound 0.1 µM, first compound 10 µM",27.8%
same,"viability, T/C","second compound 0.316 µM, first compound 0.0316 µM",89.8%
same,"viability, T/C","second compound 0.316 µM, first compound 0.1 µM",91.2%
same,"viability, T/C","second compound 0.316 µM, first compound 0.316 µM",72%
same,"viability, T/C","second compound 0.316 µM, first compound 1 µM",55.3%
same,"viability, T/C","second compound 0.316 µM, first compound 3.16 µM",40%
same,"viability, T/C","second compound 0.316 µM, first compound 10 µM",30.6%
same,"viability, T/C","second compound 1 µM, first compound 0.0316 µM",104%
same,"viability, T/C","second compound 1 µM, first compound 0.1 µM",117%
same,"viability, T/C","second compound 1 µM, first compound 0.316 µM",85.9%
same,"viability, T/C","second compound 1 µM, first compound 1 µM",53.4%
same,"viability, T/C","second compound 1 µM, first compound 3.16 µM",47%
same,"viability, T/C","second compound 1 µM, first compound 10 µM",35.1%
CC1(C)CCC(Nc2ncc(C(F)(F)F)c(-c3c[nH]c4c(P(C)(C)=O)c(C#N)ccc34)n2)CN1 (stereo not drawn),"viability, T/C",compound 0.03 µM,110% [middle of 4 runs]
same,pIC50,curve of compound,< 6.52
